Source: patent publication US9695155B2, “Herbicidal substituted pyrimidinyloxy benzene compounds” (E. I. DU PONT DE NEMOURS AND COMPANY, priority 2013, dated 2017)

Key:
barnyardgrass = assay: Test A preemergence; type: in vivo, Echinochloa crus-galli; conditions: for Plant response rating, Barnyardgrass: 125 g ai/ha; for Barnyardgrass plant response rating: 500 g ai/ha
Procedure, shortened: (§1)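 Greenhouse pot test, loam/sand soil. Formulation: non-phytotoxic solvent mix plus surfactant. Pre: directed spray onto soil after sowing. Post: plants at 1–2 leaf, 2–10 cm. Rated visually vs untreated controls at ~10 d, 0 (no effect) to 100 (complete control).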

pigweed [1] = assay: Test A preemergence; type: in vivo, Amaranthus retroflexus; conditions: for Plant response rating, Pigweed: 125 g ai/ha; for Pigweed plant response rating: 500 g ai/ha
Procedure, shortened: as §1

giant foxtail [2] = assay: Test A postemergence; type: in vivo, Setaria faberii; conditions: 0 to 100 scale where 0 is no effect and 100 is complete control
Procedure, shortened: as §1

pigweed [3] = assay: Test A postemergence; type: in vivo, Amaranthus retroflexus; conditions: 0 to 100 scale where 0 is no effect and 100 is complete control
Procedure, shortened: as §1

corn [4] = assay: Test A postemergence; type: in vivo, Zea mays; conditions: 0 to 100 scale where 0 is no effect and 100 is complete control
Procedure, shortened: as §1

large (Lg) crabgrass = assay: Test C preemergence; type: in vivo, Digitaria sanguinalis; conditions: for Crabgrass, Large plant response rating: preemergence; for Plant response rating, Crabgrass, Large: Preemergence, 31 g ai/ha, scale 0 to 100, 0 no effect, 100 complete control
Procedure, shortened: (§2)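 Injury was assessed visually against controls 13 to 15 days after application, with 0 meaning no effect and 100 full control; missing entries are shown as a dash. Preemergence sprays hit seeded loam–sand soil, postemergence sprays hit 1- to 4-leaf plants.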

johnsongrass [5] = assay: Test C preemergence; type: in vivo, Sorghum halepense; conditions: for Johnsongrass plant response rating: preemergence; for Plant response rating, Johnsongrass: Preemergence, 31 g ai/ha, scale 0 to 100, 0 no effect, 100 complete control
Procedure, shortened: as §2

lambsquarters = assay: Test C preemergence; type: in vivo, Chenopodium album; conditions: for Lambsquarters plant response rating: preemergence; for Plant response rating, Lambsquarters: Preemergence, 31 g ai/ha, scale 0 to 100, 0 no effect, 100 complete control
Procedure, shortened: as §2

ragweed = assay: Test C preemergence; type: in vivo, Ambrosia elatior; conditions: for Ragweed plant response rating: preemergence; for Plant response rating, Ragweed: Preemergence, 31 g ai/ha, scale 0 to 100, 0 no effect, 100 complete control
Procedure, shortened: as §2

galium = assay: Test C postemergence; type: in vivo, Galium aparine; conditions: for Galium plant response rating / Plant response rating, Galium: scale 0 to 100 (0 no effect, 100 complete control)
Procedure, shortened: as §2

corn [6] = assay: Test C postemergence; type: in vivo, Zea mays; conditions: for Corn plant response rating / Plant response rating, Corn: scale 0 to 100 (0 no effect, 100 complete control)
Procedure, shortened: as §2

giant foxtail [7] = assay: Test C postemergence; type: in vivo, Setaria faberii; conditions: for Foxtail, Giant plant response rating / Plant response rating, Foxtail, Giant: scale 0 to 100 (0 no effect, 100 complete control)
Procedure, shortened: as §2

johnsongrass [8] = assay: Test C postemergence; type: in vivo, Sorghum halepense; conditions: for Johnsongrass plant response rating / Plant response rating, Johnsongrass: scale 0 to 100 (0 no effect, 100 complete control)
Procedure, shortened: as §2

kochia = assay: Test C postemergence; type: in vivo, Kochia scoparia; conditions: for Kochia plant response rating / Plant response rating, Kochia: scale 0 to 100 (0 no effect, 100 complete control)
Procedure, shortened: as §2

chickweed = assay: Test C postemergence; type: in vivo, Stellaria media; conditions: for Chickweed plant response rating / Plant response rating, Chickweed: scale 0 to 100 (0 no effect, 100 complete control)
Procedure, shortened: as §2

[9] = 0 to 100 scale where 0 is no effect and 100 is complete control
[10] = 0 to 100 scale, 0 no effect, 100 complete control, approx. 10 days
[11] = 16 g ai/ha, scale 0 to 100 (0 no effect, 100 complete control)
[12] = 62 g ai/ha, scale 0 (no effect) to 100 (complete control)
[13] = 125 g ai/ha, scale 0 (no effect) to 100 (complete control)
[14] = 16 g ai/ha, postemergence, visual rating, 13 to 15 days
[15] = Postemergence, 31 g ai/ha, 13 to 15 days
[16] = 16 g ai/ha, postemergence, 0 is no effect, 100 is complete control
[17] = 125 g ai/ha, postemergence, visual rating

## N#Cc1cccc(Oc2ncc(Br)cn2)c1-n1cc(I)cn1 [Compound 88]
barnyardgrass; [9]
  Plant response rating, Barnyardgrass: 60
barnyardgrass; [10]
  Barnyardgrass plant response rating: 80
Pigweed [1]; [9]
  Plant response rating, Pigweed: 100
Pigweed [1]; [10]
  Pigweed plant response rating: 100
Giant foxtail [2]; 125 g ai/ha
  Plant response rating, Foxtail, Giant: 50
Giant foxtail [2]; 500 g ai/ha
  Plant response rating, Foxtail, Giant: 80
Pigweed [3]; 125 g ai/ha
  Plant response rating, Pigweed: 100
Pigweed [3]; 500 g ai/ha
  Plant response rating, Pigweed: 100
Corn [4]; 125 g ai/ha
  Plant response rating, Corn: 30
Corn [4]; 500 g ai/ha
  Plant response rating, Corn: 50
Large (Lg) crabgrass; [11]
  Crabgrass, Large plant response rating: 45
Large (Lg) crabgrass; [12]
  Crabgrass, Large plant response rating: 100
Large (Lg) crabgrass; [13]
  Crabgrass, Large plant response rating: 100
Large (Lg) crabgrass
  Plant response rating, Crabgrass, Large: 70
Johnsongrass [5]; [11]
  Johnsongrass plant response rating: 0
Johnsongrass [5]; [12]
  Johnsongrass plant response rating: 40
Johnsongrass [5]; [13]
  Johnsongrass plant response rating: 85
Johnsongrass [5]
  Plant response rating, Johnsongrass: 0
lambsquarters; [11]
  Lambsquarters plant response rating: 70
lambsquarters; [12]
  Lambsquarters plant response rating: 100
lambsquarters; [13]
  Lambsquarters plant response rating: 100
lambsquarters
  Plant response rating, Lambsquarters: 100
ragweed; [11]
  Ragweed plant response rating: 0
ragweed; [12]
  Ragweed plant response rating: 5
ragweed; [13]
  Ragweed plant response rating: 60
ragweed
  Plant response rating, Ragweed: 0
galium; [14]
  Galium plant response rating: 70
galium; 125 g ai/ha, postemergence
  Plant response rating (0 to 100), Galium: 95
galium; [15]
  Plant response rating, Galium: 80
galium; Postemergence, 62 g ai/ha
  Plant response rating, Galium: 70
Corn [6]; [14]
  Corn plant response rating: 5
Corn [6]; 125 g ai/ha, postemergence
  Plant response rating (0 to 100), Corn: 10
Corn [6]; [15]
  Plant response rating, Corn: 10
Corn [6]; Postemergence, 62 g ai/ha
  Plant response rating, Corn: 10
Giant foxtail [7]; [14]
  Foxtail, Giant plant response rating: 20
Giant foxtail [7]; 125 g ai/ha, postemergence
  Plant response rating (0 to 100), Foxtail, Giant: 40
Giant foxtail [7]; [15]
  Plant response rating, Foxtail, Giant: 35
Giant foxtail [7]; Postemergence, 62 g ai/ha
  Plant response rating, Foxtail, Giant: 30
Johnsongrass [8]; [14]
  Johnsongrass plant response rating: 0
Johnsongrass [8]; 125 g ai/ha, postemergence
  Plant response rating (0 to 100), Johnsongrass: 10
Johnsongrass [8]; [15]
  Plant response rating, Johnsongrass: 0
Johnsongrass [8]; Postemergence, 62 g ai/ha
  Plant response rating, Johnsongrass: 5
kochia; [14]
  Kochia plant response rating: 90
kochia; 125 g ai/ha, postemergence
  Plant response rating (0 to 100), Kochia: 100
kochia; [15]
  Plant response rating, Kochia: 95
kochia; Postemergence, 62 g ai/ha
  Plant response rating, Kochia: 95
chickweed; [14]
  Chickweed plant response rating: 5
chickweed; 125 g ai/ha, postemergence
  Plant response rating (0 to 100), Chickweed: 90
chickweed; [15]
  Plant response rating, Chickweed: 15
chickweed; Postemergence, 62 g ai/ha
  Plant response rating, Chickweed: 20

## CCOc1cnn(-c2c(C#N)cccc2Oc2ncc(F)cn2)c1 [Compound 89]
barnyardgrass; [9]
  Plant response rating, Barnyardgrass: 60
barnyardgrass; [10]
  Barnyardgrass plant response rating: 90
Pigweed [1]; [9]
  Plant response rating, Pigweed: 90
Pigweed [1]; [10]
  Pigweed plant response rating: 100
Giant foxtail [2]; 125 g ai/ha
  Plant response rating, Foxtail, Giant: 80
Giant foxtail [2]; 500 g ai/ha
  Plant response rating, Foxtail, Giant: 90
Pigweed [3]; 125 g ai/ha
  Plant response rating, Pigweed: 90
Pigweed [3]; 500 g ai/ha
  Plant response rating, Pigweed: 100
Corn [4]; 125 g ai/ha
  Plant response rating, Corn: 60
Corn [4]; 500 g ai/ha
  Plant response rating, Corn: 90
Large (Lg) crabgrass; [11]
  Crabgrass, Large plant response rating: 80
Large (Lg) crabgrass; [12]
  Crabgrass, Large plant response rating: 100
Large (Lg) crabgrass; [13]
  Crabgrass, Large plant response rating: 100
Large (Lg) crabgrass
  Plant response rating, Crabgrass, Large: 100
Johnsongrass [5]; [11]
  Johnsongrass plant response rating: 0
Johnsongrass [5]; [12]
  Johnsongrass plant response rating: 20
Johnsongrass [5]; [13]
  Johnsongrass plant response rating: 75
Johnsongrass [5]
  Plant response rating, Johnsongrass: 0
lambsquarters; [11]
  Lambsquarters plant response rating: 45
lambsquarters; [12]
  Lambsquarters plant response rating: 95
lambsquarters; [13]
  Lambsquarters plant response rating: 100
lambsquarters
  Plant response rating, Lambsquarters: 80
ragweed; [11]
  Ragweed plant response rating: 40
ragweed; [12]
  Ragweed plant response rating: 75
ragweed; [13]
  Ragweed plant response rating: 100
ragweed
  Plant response rating, Ragweed: 55
galium; [14]
  Galium plant response rating: 45
galium; 125 g ai/ha, postemergence
  Plant response rating (0 to 100), Galium: 55
galium; [15]
  Plant response rating, Galium: 40
galium; Postemergence, 62 g ai/ha
  Plant response rating, Galium: 50
Corn [6]; [14]
  Corn plant response rating: 5
Corn [6]; 125 g ai/ha, postemergence
  Plant response rating (0 to 100), Corn: 5
Corn [6]; [15]
  Plant response rating, Corn: 5
Corn [6]; Postemergence, 62 g ai/ha
  Plant response rating, Corn: 5
Giant foxtail [7]; [14]
  Foxtail, Giant plant response rating: 5
Giant foxtail [7]; 125 g ai/ha, postemergence
  Plant response rating (0 to 100), Foxtail, Giant: 10
Giant foxtail [7]; [15]
  Plant response rating, Foxtail, Giant: 5
Giant foxtail [7]; Postemergence, 62 g ai/ha
  Plant response rating, Foxtail, Giant: 5
Johnsongrass [8]; [14]
  Johnsongrass plant response rating: 0
Johnsongrass [8]; 125 g ai/ha, postemergence
  Plant response rating (0 to 100), Johnsongrass: 5
Johnsongrass [8]; [15]
  Plant response rating, Johnsongrass: 5
Johnsongrass [8]; Postemergence, 62 g ai/ha
  Plant response rating, Johnsongrass: 5
kochia; [14]
  Kochia plant response rating: 45
kochia; 125 g ai/ha, postemergence
  Plant response rating (0 to 100), Kochia: 50
kochia; [15]
  Plant response rating, Kochia: 50
kochia; Postemergence, 62 g ai/ha
  Plant response rating, Kochia: 60
chickweed; [14]
  Chickweed plant response rating: 20
chickweed; 125 g ai/ha, postemergence
  Plant response rating (0 to 100), Chickweed: 60
chickweed; [15]
  Plant response rating, Chickweed: 50
chickweed; Postemergence, 62 g ai/ha
  Plant response rating, Chickweed: 50

## Clc1cnc(Oc2cccc(Br)c2-n2cc(Br)nn2)nc1 [Compound 129]
barnyardgrass; [9]
  Plant response rating, Barnyardgrass: 70
  Barnyardgrass plant response rating: 90
Pigweed [1]; [9]
  Plant response rating, Pigweed: 100
  Pigweed plant response rating: 100
Giant foxtail [2]; 125 g ai/ha
  Foxtail, Giant plant response rating: 90
Giant foxtail [2]; 500 g ai/ha
  Plant response rating, Foxtail, Giant: 100
Pigweed [3]; 125 g ai/ha
  Pigweed plant response rating: 100
Pigweed [3]; 500 g ai/ha
  Plant response rating, Pigweed: 100
Corn [4]; 125 g ai/ha
  Corn plant response rating: 30
Corn [4]; 500 g ai/ha
  Plant response rating, Corn: 50
Large (Lg) crabgrass; [11]
  Crabgrass, Large plant response rating: 75
Large (Lg) crabgrass; [12]
  Crabgrass, Large plant response rating: 100
Large (Lg) crabgrass; [13]
  Crabgrass, Large plant response rating: 100
Large (Lg) crabgrass
  Plant response rating, Crabgrass, Large: 95
Johnsongrass [5]; [11]
  Johnsongrass plant response rating: 0
Johnsongrass [5]; [12]
  Johnsongrass plant response rating: 40
Johnsongrass [5]; [13]
  Johnsongrass plant response rating: 90
Johnsongrass [5]
  Plant response rating, Johnsongrass: 10
lambsquarters; [11]
  Lambsquarters plant response rating: 50
lambsquarters; [12]
  Lambsquarters plant response rating: 100
lambsquarters; [13]
  Lambsquarters plant response rating: 100
lambsquarters
  Plant response rating, Lambsquarters: 40
ragweed; [11]
  Ragweed plant response rating: 0
ragweed; [12]
  Ragweed plant response rating: 60
ragweed; [13]
  Ragweed plant response rating: 85
ragweed
  Plant response rating, Ragweed: 20
galium; [16]
  Plant response rating (0 to 100), Galium: 50
galium; [17]
  Plant response rating, Galium: 85
galium; Postemergence, 62 g ai/ha
  Plant response rating, Galium: 55
Corn [6]; [16]
  Plant response rating (0 to 100), Corn: 5
Corn [6]; [17]
  Plant response rating, Corn: 15
Corn [6]; Postemergence, 62 g ai/ha
  Plant response rating, Corn: 10
Giant foxtail [7]; [16]
  Plant response rating (0 to 100), Foxtail, Giant: 5
Giant foxtail [7]; [17]
  Plant response rating, Foxtail, Giant: 10
Giant foxtail [7]; Postemergence, 62 g ai/ha
  Plant response rating, Foxtail, Giant: 5
Johnsongrass [8]; [16]
  Plant response rating (0 to 100), Johnsongrass: 5
Johnsongrass [8]; [17]
  Plant response rating, Johnsongrass: 5
Johnsongrass [8]; Postemergence, 62 g ai/ha
  Plant response rating, Johnsongrass: 5
kochia; [16]
  Plant response rating (0 to 100), Kochia: 90
kochia; [17]
  Plant response rating, Kochia: 100
kochia; Postemergence, 62 g ai/ha
  Plant response rating, Kochia: 95
chickweed; [16]
  Plant response rating (0 to 100), Chickweed: 50
chickweed; [17]
  Plant response rating, Chickweed: 55
chickweed; Postemergence, 62 g ai/ha
  Plant response rating, Chickweed: 70
